≈ marks a conversion by molar mass, not a printed value. Entries after “also recorded” stand apart in the source; their conditions may differ. Like-named read-outs stand apart in the source and are kept apart here.
Columns and labels:
CD strains = test: In vitro activity of CFM + additional antimicrobial agent against CD (MIC alone/combination, FIC, ΣFIC); format: cell-based, Clostridium difficile; details: CD strain NR32888
Escherichia coli strains = test: MIC by microdilution in Mueller-Hinton broth against Escherichia coli strains; format: cell-based; details: for MIC: Escherichia coli, Mueller-Hinton broth, read-out: MIC
[1] = test system: Staphylococcus aureus strains; test: MIC by microdilution in Mueller-Hinton broth against Staphylococcus aureus strains; format: cell-based; details: Staphylococcus aureus
Bacteroides Strains = test: MIC by microdilution in Brucella broth against Bacteroides strains; format: cell-based, Bacteroides spp.
Fusobacterium = test: MIC by microdilution in Brucella broth against Fusobacterium; format: cell-based, Fusobacterium spp.; details: Brucella broth, read-out: MIC
Bifidobacterium strains = test: MIC by microdilution in BHI broth against Bifidobacterium strains; format: cell-based, Bifidobacterium spp.; details: BHI broth, read-out: MIC
Lactobacillus strains = test: MIC against Lactobacillus strains; format: cell-based, Lactobacillus spp.; details: broth microdilution, BHI with 0.02% Tween 80, pH 6.0, read-out: MIC
[2] = test system: Lachnospiraceae and related bacterial strains; test: MIC against Lachnospiraceae and related bacterial strains; format: cell-based, Lachnospiraceae spp.

## CC(C)N=c1cc2n(-c3ccc(Cl)cc3)c3ccccc3nc-2cc1Nc1ccc(Cl)cc1 [CFM, 3-(p-chloroanilino)-10-(p-chlorophenyl)-2,10-dihydro-2-iso-propyliminophenazine]
CD strains; Test 19, CFM + MET
  FIC: 0.062
  MIC combination: 0.015 µg/mL
CD strains; Test 19, sum for combination CFM + MET
  ΣFIC: 0.125
CD strains; Test 20, CFM + VAN
  FIC: 0.25
  MIC combination: 0.062 µg/mL
CD strains; Test 20, sum for combination CFM + VAN
  ΣFIC: 0.75
CD strains; Test 21, CFM + MET
  FIC: 0.031
  MIC combination: 0.0078 µg/mL
CD strains; Test 21, sum for combination CFM + MET
  ΣFIC: 0.28
Escherichia coli strains
  activity against E. coli (in words): relatively inactive; also recorded: not active
Escherichia coli strains; Escherichia coli strain NR 6
  MIC: > 32 µg/mL
Escherichia coli strains; Escherichia coli strain NR 8
  MIC: > 32 µg/mL
Escherichia coli strains; Escherichia coli strain NR 96
  MIC: > 32 µg/mL
Escherichia coli strains; Escherichia coli strain NR 104
  MIC: > 32 µg/mL
Escherichia coli strains; Escherichia coli strain NR 17626
  MIC: > 32 µg/mL
Escherichia coli strains; Escherichia coli strain NR 17627
  MIC: > 32 µg/mL
Escherichia coli strains; Escherichia coli strain NR 17633
  MIC: > 32 µg/mL
Escherichia coli strains; Escherichia coli strain NR 17647
  MIC: > 32 µg/mL
Escherichia coli strains; Escherichia coli strain NR 17650
  MIC: > 32 µg/mL
Escherichia coli strains; Escherichia coli strain NR 17661
  MIC: > 32 µg/mL
[1]; Staphylococcus aureus strain NR 10129, read-out: MIC
  MIC: 16 µg/mL (≈ 33.8 µM)
[1]; Staphylococcus aureus strain NR 10186, read-out: MIC
  MIC: 2 µg/mL (≈ 4.22 µM)
[1]; Staphylococcus aureus strain NR 10187, read-out: MIC
  MIC: > 32 µg/mL
[1]; Staphylococcus aureus strain NR 10188, read-out: MIC
  MIC: 8 µg/mL (≈ 16.9 µM)
[1]; Staphylococcus aureus strain NR 10189, read-out: MIC
  MIC: 8 µg/mL (≈ 16.9 µM)
[1]; Staphylococcus aureus strain NR 10191, read-out: MIC
  MIC: 4 µg/mL (≈ 8.45 µM)
[1]; Staphylococcus aureus strain NR 10192, read-out: MIC
  MIC: 8 µg/mL (≈ 16.9 µM)
[1]; Staphylococcus aureus strain NR 10193, read-out: MIC
  MIC: 4 µg/mL (≈ 8.45 µM)
[1]; Staphylococcus aureus strain NR 10194, read-out: MIC
  MIC: 4 µg/mL (≈ 8.45 µM)
[1]; Staphylococcus aureus strain NR 10198, read-out: MIC
  MIC: 16 µg/mL (≈ 33.8 µM)
Bacteroides Strains; B. caccae HM728, read-out: MIC
  MIC: 1 µg/mL (≈ 2.11 µM)
Bacteroides Strains; B. eggerthii HM210, read-out: MIC
  MIC: 2 µg/mL (≈ 4.22 µM)
Bacteroides Strains; B. fragilis HM709, read-out: MIC
  MIC: 4 µg/mL (≈ 8.45 µM)
Bacteroides Strains; B. fragilis HM710, read-out: MIC
  MIC: 2 µg/mL (≈ 4.22 µM)
Bacteroides Strains; B. fragilis HM714, read-out: MIC
  MIC: 2 µg/mL (≈ 4.22 µM)
Bacteroides Strains; B. ovatus HM222, read-out: MIC
  MIC: 0.25 µg/mL (≈ 0.528 µM)
Bacteroides Strains; B. stercoris HM1036, read-out: MIC
  MIC: 0.5 µg/mL (≈ 1.06 µM)
Bacteroides Strains; Bacteroides, B. spp. HM18
  MIC: 4 µg/mL (≈ 8.45 µM)
Bacteroides Strains; Bacteroides, B. spp. HM19
  MIC: 1 µg/mL (≈ 2.11 µM)
Bacteroides Strains; Bacteroides, B. spp. HM23, read-out: MIC
  MIC: 2 µg/mL (≈ 4.22 µM)
Bacteroides Strains; Bacteroides, B. spp. HM27
  MIC: 1 µg/mL (≈ 2.11 µM)
Bacteroides Strains; Bacteroides, B. spp. HM58
  MIC: 1 µg/mL (≈ 2.11 µM)
Fusobacterium; F. nucleatum HM-75
  MIC: > 32 µg/mL
Fusobacterium; F. nucleatum HM-260
  MIC: > 32 µg/mL
Fusobacterium; F. nucleatum HM-992
  MIC: > 32 µg/mL
Fusobacterium; F. nucleatum HM-993
  MIC: 2 µg/mL (≈ 4.22 µM)
Fusobacterium; F. nucleatum HM-994
  MIC: 32 µg/mL (≈ 67.6 µM)
Fusobacterium; F. nucleatum HM-995
  MIC: > 32 µg/mL
Fusobacterium; F. nucleatum HM-996
  MIC: 32 µg/mL (≈ 67.6 µM)
Fusobacterium; F. nucleatum HM-997
  MIC: > 32 µg/mL
Fusobacterium; Fusobacterium, Fusobacterium sp. HM 42
  MIC: > 32 µg/mL
Fusobacterium; Fusobacterium, Fusobacterium sp. HM 57
  MIC: > 32 µg/mL
Fusobacterium; Fusobacterium, Fusobacterium sp. HM-556
  MIC: 16 µg/mL (≈ 33.8 µM)
Fusobacterium; Fusobacterium, Fusobacterium sp. HM-758
  MIC: > 32 µg/mL
Fusobacterium; Fusobacterium, Fusobacterium sp. HM-871
  MIC: 32 µg/mL (≈ 67.6 µM)
Fusobacterium; Fusobacterium, Fusobacterium sp. HM-874
  MIC: > 32 µg/mL
Fusobacterium; Fusobacterium, Fusobacterium sp. HM-875
  MIC: 32 µg/mL (≈ 67.6 µM)
Bifidobacterium strains; Bifidobacterium adolescentis HM-633
  MIC: 1 µg/mL (≈ 2.11 µM)
Bifidobacterium strains; Bifidobacterium breve HM-411
  MIC: 2 µg/mL (≈ 4.22 µM)
Bifidobacterium strains; Bifidobacterium breve HM-412
  MIC: 2 µg/mL (≈ 4.22 µM)
Bifidobacterium strains; Bifidobacterium breve HM-856
  MIC: 4 µg/mL (≈ 8.45 µM)
Bifidobacterium strains; Bifidobacterium breve HM-1120
  MIC: > 32 µg/mL
Bifidobacterium strains; Bifidobacterium longum HM-845
  MIC: 1 µg/mL (≈ 2.11 µM)
Bifidobacterium strains; Bifidobacterium longum HM-846
  MIC: 2 µg/mL (≈ 4.22 µM)
Bifidobacterium strains; Bifidobacterium longum HM-847
  MIC: 1 µg/mL (≈ 2.11 µM)
Bifidobacterium strains; Bifidobacterium, Bifidobacterium sp. HM-30
  MIC: 0.5 µg/mL (≈ 1.06 µM)
Bifidobacterium strains; Bifidobacterium, Bifidobacterium sp. HM-868
  MIC: 2 µg/mL (≈ 4.22 µM)
Lactobacillus strains; Lactobacillus, pH 6, Lactobacillus jhonsonii HM-643
  MIC: > 32 µg/mL
Lactobacillus strains; Lactobacillus, pH 6, Lactobacillus sp. HM-228
  MIC: 1 µg/mL (≈ 2.11 µM)
Lactobacillus strains; Lactobacillus, pH 6, Lactobacillus sp. HM-478
  MIC: > 32 µg/mL
Lactobacillus strains; pH 6, Lactobacillus crispatus HM-637
  MIC: 4 µg/mL (≈ 8.45 µM)
Lactobacillus strains; pH 6, Lactobacillus gasseri HM-104
  MIC: > 32 µg/mL
Lactobacillus strains; pH 6, Lactobacillus iners HM-126
  MIC: 2 µg/mL (≈ 4.22 µM)
Lactobacillus strains; pH 6, Lactobacillus jensenii HM-105
  MIC: > 32 µg/mL
Lactobacillus strains; pH 6, Lactobacillus reuteri HM-102
  MIC: > 32 µg/mL
Lactobacillus strains; pH 6, Lactobacillus rhamnosus HM-106
  MIC: > 32 µg/mL
Lactobacillus strains; pH 6, Lactobacillus vaginalis HM-405
  MIC: 2 µg/mL (≈ 4.22 µM)
[2]
  MIC: 0.125 µg/mL (≈ 0.264 µM)
[2]; Clostridiales bacterium, Clostridiales bacterium HM-84, broth microdilution, brucella broth, read-out: MIC
  MIC: ≤ 0.031 µg/mL
[2]; Clostridiales bacterium, Clostridiales bacterium HM-182, broth microdilution, brucella broth, read-out: MIC
  MIC: 0.25 µg/mL (≈ 0.528 µM)
[2]; Eubacterium sp. HM-178, broth microdilution, brucella broth
  MIC: 0.125 µg/mL (≈ 0.264 µM)
[2]; Lachnospiraceae sp. HM-7, broth microdilution, brucella broth, read-out: MIC
  MIC: ≤ 0.031 µg/mL
[2]; Lachnospiraceae sp. HM-150, broth microdilution, brucella broth, read-out: MIC
  MIC: 0.25 µg/mL (≈ 0.528 µM)
[2]; Lachnospiraceae sp. HM-153, broth microdilution, brucella broth
  MIC: 0.125 µg/mL (≈ 0.264 µM)
[2]; Lachnospiraceae sp. HM-154, broth microdilution, brucella broth, read-out: MIC
  MIC: 0.5 µg/mL (≈ 1.06 µM)
[2]; Lachnospiraceae sp. HM-161, broth microdilution, brucella broth, read-out: MIC
  MIC: 0.25 µg/mL (≈ 0.528 µM)
[2]; Lachnospiraceae sp. HM-480, broth microdilution, brucella broth, read-out: MIC
  MIC: 0.062 µg/mL (≈ 0.131 µM)
[2]; Lachnospiraceae sp. HM-558, broth microdilution, brucella broth, read-out: MIC
  MIC: 0.062 µg/mL (≈ 0.131 µM)
[2]; Lachnospiraceae sp. HM-768, broth microdilution, brucella broth, read-out: MIC
  MIC: ≤ 0.031 µg/mL
[2]; Lachnospiraceae sp. HM-868, broth microdilution, brucella broth, read-out: MIC
  MIC: 2 µg/mL (≈ 4.22 µM)
[2]; Peptostreptococcaceae sp. HM-766, broth microdilution, brucella broth, read-out: MIC
  MIC: 1 µg/mL (≈ 2.11 µM)
[2]; most of the members of this family
  susceptibility of Lachnospiraceae and related organisms (in words): susceptible
C. difficile VPI10463; Clostridioides difficile, VPI10463
  MIC: 0.125 µg/mL (≈ 0.264 µM)
C. difficile VPI10463; Clostridioides difficile, VPI10463, Expt. 1, fecal extract (human feces 20% w/v in BHI), C. difficile VPI10463
  MIC: 0.5 µg/mL (≈ 1.06 µM)
C. difficile VPI10463; Clostridioides difficile, VPI10463, Expt. 2, −fecal extract, C. difficile VPI10463
  MIC: 0.062 µg/mL (≈ 0.131 µM)
C. difficile VPI10463; Expt. 2, +fecal extract (human feces 20% w/v in BHI), C. difficile VPI10463
  MIC: 0.125 µg/mL (≈ 0.264 µM)

Reference: US9849130B2 (KamTek, Inc., priority 2014, dated 2017)
